Data from PubChem BioAssay (NCI).
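How tested: cells in 96-well plates exposed to compound for 48 hours at five concentrations. GI50 marks 50% less growth. TGI marks complete inhibition of growth.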

How the values were obtained:
Assay in all cases: DTP human tumour cell line panel, 48 h
NCI-H226 lung = tested on: NCI-H226 lung
UACC-257 melanoma = tested on: UACC-257 melanoma
NCI-H460 lung = tested on: NCI-H460 lung
KM12 colon = tested on: KM12 colon
NCI-H522 lung = tested on: NCI-H522 lung
OVCAR-8 ovarian = tested on: OVCAR-8 ovarian
RPMI-8226 leukemia = tested on: RPMI-8226 leukemia
SK-MEL-2 melanoma = tested on: SK-MEL-2 melanoma

Structure (SMILES)	GI50 (NCI-H226 lung) [µM]	TGI (NCI-H226 lung) [µM]	GI50 (UACC-257 melanoma) [µM]	TGI (UACC-257 melanoma) [µM]	GI50 (NCI-H460 lung) [µM]	TGI (NCI-H460 lung) [µM]	GI50 (KM12 colon) [µM]	TGI (KM12 colon) [µM]	GI50 (NCI-H522 lung) [µM]	TGI (NCI-H522 lung) [µM]	GI50 (OVCAR-8 ovarian) [µM]	TGI (OVCAR-8 ovarian) [µM]	TGI (RPMI-8226 leukemia) [µM]	TGI (SK-MEL-2 melanoma) [µM]	GI50 (SK-MEL-2 melanoma) [µM]	GI50 (RPMI-8226 leukemia) [µM]
Clc1nc(Cl)c2ncn(CCOCCn3cnc4c(Cl)nc(Cl)nc43)c2n1	1.56	3.2	0.235	0.488	0.217	0.463	0.236	0.491	0.684	2.22	0.228	0.486				
CC1=NNC(=S)NCCCN2CCN(CCCNC(=S)NN=C(C)C=NNC(=S)NCCCN3CCN(CCCNC(=S)NN=C1)CC3)CC2		> 100		> 100				> 100		> 100		> 100	> 100	> 100		
O=C1C(Sc2ccc3ccccc3c2)=C(Sc2ccc3ccccc3c2)C(=O)c2ccccc21		37.4		16.3		> 100				10.6		22.2		19.3		
c1ccc2c(CNCCN3CCNCC3)c3ccccc3c(CNCCN3CCNCC3)c2c1	10.3	37.6	62	> 100	25	98.3	10.3	26.8	13	35.9	36.9	> 100		> 100	29	
N#CC1C(N)=NNC12Nc1ccccc1S2 (configuration not stated)			13.6	44.4	36.6	> 100	18.9	91.6	7.8	29.7	13	61.1	> 100	43.9	6.28	26.3
COC1=C(OC)[C@]2(OC)c3c(O)c(OC)c4c(c3O[C@@]23O[C@@H](c2ccccc2)CC=C3C1=O)[C@@H](OC)C[C@H](c1ccccc1)O4			0.814	2.17	1.09	2.56	1.57	3.12	0.247	0.762	0.451	2.62	0.335			0.083
CC1CCC2C(CN(CC3=C(C(F)(F)F)OC4OC5(C)CCC6C(C)CCC3C46OO5)CC3=C(C(F)(F)F)OC4OC5(C)CCC6C(C)CCC3C46OO5)=C(C(F)(F)F)OC3OC4(C)CCC1C32OO4 (configuration not stated)	19.4	57.8	27.1	> 100	12.9	30	3.72	10.1	16.2	42.2	14.1	76.4		> 100	36.6	
Cc1cc2c(c(=O)o1)C1=S(SC(c3ccccc3)=C1)S2 (configuration not stated)				> 100		> 100		> 100		> 100		> 100	> 100	> 100		
C=CC[N+]1(CC)CCN=C1CCCCCCCCCCCCCCCCC (configuration not stated)			0.731	2.16	0.429	1.46								1.59	0.538	
Clc1ccc([I+]c2ccc(Cl)cc2Cl)c(Cl)c1			2.38	5.8	2.35	5.39	2.13	4.47	1.62	3.01	2.1	4.8	5.25	5	2.62	2.19
CCOC(=O)C(Cc1ccc(N(CCCl)CCCl)cc1)NC(=O)C(Cc1ccccc1)NC(C)=O (configuration not stated)		> 1		> 0.486		> 0.553		> 0.565				> 1	0.211	> 0.36		
CN1CCCC1c1cccnc1.O=C(O)c1ccccc1O.O=C([O-])c1ccccc1[OH2+].O=C([O-])c1ccccc1[OH2+].[Mn+2] (configuration not stated)	> 100	> 100	56.7	> 100			> 100	> 100	16.7	36.4	> 100	> 100	> 100	> 100	54.3	77.9
Fc1ccc2nc(-c3nc(-c4ccccc4)n4ccccc34)[nH]c2c1	1.8	5.8	2.16	4.76	2.07	5.2	3.31	10.2	2.43	5.6	1.87	4.1		7.83	2.85	
C=CC(=O)N[C@@H](/C=C/C(=O)OCC)Cc1ccc(-c2cc(Cl)cc(Cl)c2)cc1	16.7	71.7			11.2	32.8	16.6	93.7	7.6	24.9	8.89	> 100		38.3	16.3	
c1ccc(C2CCCCC2)c(OCCCCCN2CCNCC2)c1	22.4	48.5	2.35	4.92	1.65	3.56	1.85	4	10.3	28.5	13.4	43	4.75			1.69
